Experimental findings from US20220089568A1 (Janssen Biotech, Inc., priority 2019, published 2022) are described below.

The target in test [1] is T1, human DHODH (Homo sapiens, UniProt Q02127).
T1 construct: purchased Proteros PR-0044
Description: DHODH Enzymatic Assay. The test is classed as biochemical. To be noted: purified human DHODH; DCIP absorbance, end-point mode. The gist of the method: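 Purified human DHODH activity read as absorbance of DCIP, the terminal electron acceptor, in […] pH 7.5, 150 mM NaCl, 0.5 mM EDTA, 0.1% Triton X-100. Reaction started with a substrate mix of 20 mM DHO, 5 mM CoQ6 and 1 mM DCIP in assay buffer.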

Test [2] has as its system MOLM-13 cells. As to the kind of experiment: MOLM-13 Cellular Assay. In kind it is cell-based. To be noted: Homo sapiens, 72 hours exposure, cell viability by CellTiter-Glo. The protocol:
The day prior to assay set-up, cells were pelleted, resuspended in fresh media, counted, and cells were plated at 0.4×10^6 cell/mL in a T150 flask. […] Cells were exposed to different concentrations of test compounds at 37° C., 5% CO2 for 72 hours immediately after seeding.

T1 sequence (Q02127 whole entry): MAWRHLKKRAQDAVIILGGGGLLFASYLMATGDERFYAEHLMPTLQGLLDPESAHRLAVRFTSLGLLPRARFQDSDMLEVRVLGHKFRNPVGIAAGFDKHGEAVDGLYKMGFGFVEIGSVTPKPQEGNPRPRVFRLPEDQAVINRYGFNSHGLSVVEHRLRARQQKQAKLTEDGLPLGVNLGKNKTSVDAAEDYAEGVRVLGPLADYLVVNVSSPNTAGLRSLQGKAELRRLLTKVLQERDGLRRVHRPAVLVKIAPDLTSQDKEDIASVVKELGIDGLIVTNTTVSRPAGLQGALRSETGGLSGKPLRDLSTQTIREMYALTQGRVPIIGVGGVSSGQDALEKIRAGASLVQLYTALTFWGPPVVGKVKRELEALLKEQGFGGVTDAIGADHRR

As for `Cc1ccnc(Cl)c1NC(=O)c1cc(F)c(-n2nc(CF)n(CCCO)c2=O)nc1O[C@@H](C)C(F)(F)F` [Example 101, N-(2-Chloro-4-methyl-3-pyridyl)-5-fluoro-6-[3-(fluoromethyl)-4-(3-hydroxypropyl)-5-oxo-1,2,4-triazol-1-yl]-2-[(1S)-2,2,2-trifluoro-1-methyl-ethoxy]pyridine-3-carboxamide], the EC50 in test [1] was 39.4 nM; in test [2] it was 19.4 nM.

For `CCn1c(CO)nn(-c2nc(O[C@@H](C)C(F)(F)F)c(C(=O)Nc3ncc(OC)cc3Cl)cc2F)c1=O` [Example 118, N-(3-Chloro-5-methoxy-2-pyridyl)-6-[4-ethyl-3-(hydroxymethyl)-5-oxo-1,2,4-triazol-1-yl]-5-fluoro-2-[(1S)-2,2,2-trifluoro-1-methyl-ethoxy]pyridine-3-carboxamide], the EC50 turned out to be 4.64 nM in test [1] and 6.38 nM in test [2].

With `CCn1c(CO)nn(-c2nc(O[C@@H](C)C(F)(F)F)c(C(=O)Nc3nccnc3Cl)cc2F)c1=O` [Example 19, (S)-N-(3-Chloropyrazin-2-yl)-6-(4-ethyl-3-(hydroxymethyl)-5-oxo-4,5-dihydro-1H-1,2,4-triazol-1-yl)-5-fluoro-2-((1,1,1-trifluoropropan-2-yl)oxy)nicotinamide], the results for the half-maximal effective concentration (EC50) in test [1] and in test [2] were 40.4 nM and 51.3 nM, respectively.

As to `CCn1c(CO)nn(-c2nc(O[C@@H](C)C(F)(F)F)c(C(=O)Nc3cc(F)cnc3Cl)cc2F)c1=O` [Example 78, N-(2-Chloro-5-fluoro-3-pyridyl)-6-[4-ethyl-3-(hydroxymethyl)-5-oxo-1,2,4-triazol-1-yl]-5-fluoro-2-[(1S)-2,2,2-trifluoro-1-methyl-ethoxy]pyridine-3-carboxamide], the EC50 in test [1] is 12.3 nM; in test [2], 25 nM.

Regarding `CCn1c(COC)nn(-c2nc(O[C@@H](C)C(F)(F)F)c(C(=O)Nc3c(F)cccc3Cl)cc2F)c1=O` [Example 14, (S)-N-(2-Chloro-6-fluorophenyl)-6-(4-ethyl-3-(methoxymethyl)-5-oxo-4,5-dihydro-1H-1,2,4-triazol-1-yl)-5-fluoro-2-((1,1,1-trifluoropropan-2-yl)oxy)nicotinamide], the concentration giving a half-maximal response (EC50) in test [1] is less than 1.69 nM; in test [2] it was 0.2 nM.

On to `CCn1c(CO)nn(-c2nc(OC3CCOC3)c(C(=O)Nc3c(F)cccc3Cl)cc2F)c1=O` (racemic) [Example 9, Racemic-N-(2-Chloro-6-fluorophenyl)-6-(4-ethyl-3-(hydroxymethyl)-5-oxo-4,5-dihydro-1H-1,2,4-triazol-1-yl)-5-fluoro-2-((tetrahydrofuran-3-yl)oxy)nicotinamide], for which the EC50 is 31.8 nM in test [1] and 18.5 nM in test [2].

With `Cc1ccnc(Cl)c1NC(=O)c1cc(F)c(-n2nc(CF)n(CCO)c2=O)nc1O[C@@H](C)C(F)(F)F` [Example 116, N-(2-Chloro-4-methyl-3-pyridyl)-5-fluoro-6-[3-(fluoromethyl)-4-(2-hydroxyethyl)-5-oxo-1,2,4-triazol-1-yl]-2-[(1S)-2,2,2-trifluoro-1-methyl-ethoxy]pyridine-3-carboxamide], the concentration for a half-maximal effect (EC50) came to 20.5 nM in test [1] and 7.23 nM in test [2].

As to `CCn1c(CO)nn(-c2nc(O[C@@H](C)C(F)(F)F)c(C(=O)Nc3snc(C)c3Br)cc2F)c1=O` [Example 31, (S)-N-(4-Bromo-3-methylisothiazol-5-yl)-6-(4-ethyl-3-(hydroxymethyl)-5-oxo-4,5-dihydro-1H-1,2,4-triazol-1-yl)-5-fluoro-2-((1,1,1-trifluoropropan-2-yl)oxy)nicotinamide], the EC50 in test [1] is 233 nM; in test [2], greater than 100 nM.

In the case of `CCn1c(CO)nn(-c2nc(O[C@@H](C)C(F)(F)F)c(C(=O)Nc3cnsc3Br)cc2F)c1=O` [Example 15, (S)-N-(5-Bromoisothiazol-4-yl)-6-(4-ethyl-3-(hydroxymethyl)-5-oxo-4,5-dihydro-1H-1,2,4-triazol-1-yl)-5-fluoro-2-((1,1,1-trifluoropropan-2-yl)oxy)nicotinamide], the 50% effective concentration (EC50) is 3.1 nM in test [1] and 2.5 nM in test [2].

Turning to `CCn1c(CO)nn(-c2nc(O[C@@H](C)C(F)(F)F)c(C(=O)Nc3ncccc3Cl)cc2F)c1=O` [Example 54, (S)-N-(3-Chloropyridin-2-yl)-6-(4-ethyl-3-(hydroxymethyl)-5-oxo-4,5-dihydro-1H-1,2,4-triazol-1-yl)-5-fluoro-2-((1,1,1-trifluoropropan-2-yl)oxy)nicotinamide], the concentration for a half-maximal effect (EC50) was found to be 5.2 nM in test [1] and 6.9 nM in test [2].

Regarding `CCn1c(CO)nn(-c2nc(O[C@@H](C)C(F)(F)F)c(C(=O)Nc3cccnc3Cl)cc2F)c1=O` [Example 4, (S)-N-(2-Chloropyridin-3-yl)-6-(4-ethyl-3-(hydroxymethyl)-5-oxo-4,5-dihydro-1H-1,2,4-triazol-1-yl)-5-fluoro-2-((1,1,1-trifluoropropan-2-yl)oxy)nicotinamide], the EC50 in test [1] was found to be 2.8 nM; in test [2], 6.5 nM.
